Results on 13 compounds are retold here after patent US20230295152A1 (SENDA BIOSCIENCES, INC., priority 2019, published 2023).

The target in one series is T1, AHR (Homo sapiens, UniProt P35869).
T1 construct: other cell line with a DRE-luciferase reporter stably transfected; endogenous in cells; host or cells: HepG2 AhR-Lucia reporter cells
T1 sequence (P35869 11-848): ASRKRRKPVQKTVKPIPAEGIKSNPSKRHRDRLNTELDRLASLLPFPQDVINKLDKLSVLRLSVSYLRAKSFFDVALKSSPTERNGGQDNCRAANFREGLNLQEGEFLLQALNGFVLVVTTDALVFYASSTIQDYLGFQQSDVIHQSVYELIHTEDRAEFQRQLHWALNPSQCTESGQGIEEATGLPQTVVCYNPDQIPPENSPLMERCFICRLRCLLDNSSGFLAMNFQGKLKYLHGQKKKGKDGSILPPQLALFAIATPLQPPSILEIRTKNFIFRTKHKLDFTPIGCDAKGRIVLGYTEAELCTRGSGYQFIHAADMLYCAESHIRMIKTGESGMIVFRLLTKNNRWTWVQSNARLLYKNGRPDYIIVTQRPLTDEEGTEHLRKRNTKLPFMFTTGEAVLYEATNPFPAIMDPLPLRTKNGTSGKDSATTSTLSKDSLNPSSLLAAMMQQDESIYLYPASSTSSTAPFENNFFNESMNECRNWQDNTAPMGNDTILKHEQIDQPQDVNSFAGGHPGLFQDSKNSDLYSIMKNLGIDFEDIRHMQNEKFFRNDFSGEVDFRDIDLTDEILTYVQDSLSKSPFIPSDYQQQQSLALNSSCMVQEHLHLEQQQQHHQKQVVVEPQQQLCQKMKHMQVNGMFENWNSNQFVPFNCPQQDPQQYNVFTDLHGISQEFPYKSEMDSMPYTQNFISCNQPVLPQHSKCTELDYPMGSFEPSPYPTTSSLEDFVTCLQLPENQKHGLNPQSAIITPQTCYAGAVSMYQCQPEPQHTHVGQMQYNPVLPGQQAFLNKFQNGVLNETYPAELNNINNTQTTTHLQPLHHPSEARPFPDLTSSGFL
The series is described as follows: DRE-Luciferase Reporter Assay, HepG2 AhR-Lucia reporter cells. Format: cell-based. The conditions noted are these: with AHR activating ligand at EC50, read-out: HepG2-Luc IC50. The method in brief:
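Antagonism read as inhibition of agonist-driven secreted luciferase in stably DRE-reporter-transfected cells such as HepG2 AhR-Lucia. Agonist ligand at EC50 concentration added 1 hr post-plating alongside antagonist (log series, top 100 uM); supernatant read at 24 or 48 h, IC50 derived against agonist-only maximum.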

The nature of series [1]: Hepatocyte Stability Assay, human. Format: in vitro ADME. The settings on record: cryopreserved hepatocytes in suspension; human hepatocytes; read-out: Human hepatocyte clearance. The protocol: • Preparation of working solutions: 10 mM stock solutions of test compound and positive control were prepared in DMSO. In separate conical tubes, the 10 mM solution of test compound and the positive control were diluted to 100 μM by combining 198 μL of 50% acetonitrile/50% water and 2 μL of 10 mM stock.
Preparation of Hepatocytes: Incubation medium (William's E Medium supplemented with GlutaMAX) and hepatocyte thawing medium were placed in a 37° C. water bath and allowed warming for at least 15 minutes prior to use. A vial of cryopreserved hepatocytes was transferred from storage, ensuring that vials remained at cryogenic temperatures until thawing process ensued. Cells were thawed by placing the vial in a 37° C. water bath and gently shaking the vials for 2 minutes. After thawing was completed, vial was sprayed with 70% ethanol and transferred to a biosafety cabinet. Wide-bore pipette tip were used to transfer hepatocytes into 50 mL conical tube containing thawing medium. The 50 mL conical tube were placed into a centrifuge and spun at 100 g for 10 minutes. Upon completion of spin, thawing medium was aspirated and resuspended hepatocytes in enough incubation medium to yield ˜1.5×10^6 cells/mL. Using an AO/PI Staining, cells were counted and the viable cell density was determined. Cells with poor viability (<75% viability) were determined to be not acceptable for use. Cells were diluted with incubation medium to a working cell density of 0.5×10^6 viable cells/mL.
Procedure for Stability Determination: 198 μL of hepatocytes were pipetted into each wells of a 96-well non-coated plate. The plate was placed in the incubator to allow the hepatocytes to warm for 10 minutes. 2 μL of the 100 μM test compound or positive control solutions were pipetted into respective wells of the 96-well non-coated plate to start the reaction. The plate was returned to the incubator for the designed time points. Well contents was transferred in 25 μL aliquots at time points of 0, 15, 30, 60, 90 and 120 minutes. The aliquots were then mixed with 6 volumes (150 μL) of acetonitrile containing internal standard, IS (100 nM alprazolam, 200 nM caffeine and 100 nM tolbutamide) to terminate the reaction. The mixture was vortex for 5 minutes. Samples were centrifuged for 45 minutes at 3,220 g. An aliquot of 100 μL of the supernatant was diluted by 100 μL ultra-pure water, and the mixture was used for LC/MS/MS analysis. All incubations were performed in duplicate.
Data Analysis: All calculations were carried out using Microsoft Excel. Peak areas were determined from extracted ion chromatograms. In vitro half-life (t1/2) of parent compound was determined by regression analysis of the percent parent disappearance vs. time curve.
The in vitro half-life (in vitro t1/2) was determined from the slope value:
Conversion of the in vitro t1/2 (in min) into the in vitro intrinsic clearance (in vitro CLint, in μL/min/1×10^6 cells) was done using the following equation (mean of duplicate determinations):
V=incubation volume(0.2 mL);
N=number of hepatocytes per well(0.1×10^6 cells).
“+++” indicates a CLint value less than 20 mL/min/Kg, “++” indicates a CLint between 20 and 50 mL/min/Kg, and “+” indicates an CLint above 50 mL/min/Kg.

The nature of series [2]: Solubility Determination Assay in PBS pH 1.6 and pH 7.4. Format: physicochemical. The conditions noted are these: PBS buffer, aqueous buffer, kinetic from dmso stock. The protocol: The stock solutions of test compounds and control compound progesterone were prepared in DMSO at the concentrations of 10 mM. 15 μL of stock solution (10 mM) of each sample was placed in order into their proper 96-well rack. 485 μL of PBS pH 1.6 and pH 7.4 were added into each vial of the cap-less Solubility Sample plate. The assay was performed in singlet. One stir stick was added to each vial and then the vial was sealed using a molded PTFE/Silicone plug. […] After completion of the 2 hours, plugs were removed and the stir sticks were removed using a big magnet. The samples from the Solubility Sample plate were transferred into the filter plate. Using the Vacuum Manifold, all the samples were filtered. An aliquot of 5 μL was taken from the filtrate followed by addition of 495 μL of a mixture of H2O and acetonitrile containing internal standard (1:1). A certain proportion of ultrapure water was used to dilute the diluent according to the peak shape. The dilution factor was changed according to the solubility values and the LC-MS signal response.
From the 10 mM DMSO STD plate, 6 μL was transferred into the remaining empty plate, and then 194 μL of DMSO were added to that plate to have a STD concentration of 300 μM. From the 300 μM DMSO STD plate, 5 μL were transferred into the remaining empty plate, and then 495 μL of a mixture of H2O and acetonitrile containing internal standard (1:1) were added to that plate to have a final STD concentration of 3 μM. A certain proportion of ultrapure water was used to dilute the diluent according to the peak shape. The concentrations of the standard samples were changed according to the LC-MS signal response.
The plate was placed into the well plate autosampler. The samples were evaluated by LC-MS/MS analysis.
All calculations were carried out using Microsoft Excel.
The filtrate was analyzed and quantified against a standard of known concentration using LC coupled with mass spectral peak identification and quantitation. Solubility values of the test compound and control compound were calculated as follows: […]
Any value of the compounds that was not within the specified limits was rejected and the experiment was repeated.
“+++” indicates a solubility value equal to or greater than 1 μM, “++” indicates a solubility value between 0.1 and 1 μM, and “+” indicates a solubility value less than 0.1 μM.

[3] abbreviates: PBS pH 1.6, 25° C., read-out: Aq. Solubility at pH = 1.6.
[4] abbreviates: PBS pH 7.4, 25° C., read-out: Aq. Solubility at pH = 7.4.

Each structure is given as a SMILES string. Where two headings read alike, the source gives them in different places.

In general, IC50 refers to the point on the concentration scale where inhibition reaches its midpoint. For the compound `O=c1c2cc(-c3ccc(Cl)cc3)nc(-c3cccnc3)c2ncn1[C@@H]1CNC[C@H]1O` [Compound 134, 6-(4-chlorophenyl)-3-((3R,4R)-4-hydroxypyrrolidin-3-yl)-8-(pyridin-3-yl)pyrido[3,4-d]pyrimidin-4(3H)-one], at AHR, the IC50 is below 100 nM. Also, the CLint scaled at 1 μM in series [1] is below 20 mL/min/kg.
One may read the solubility as the dissolved amount per volume that the medium holds. For `O=c1c2cc(-c3ccc(C(F)(F)F)cn3)nc(-c3cccnc3)c2ncn1[C@@H]1COC[C@@H]1O` [Compound 148, 3-((3R,4R)-4-hydroxytetrahydrofuran-3-yl)-8-(pyridin-3-yl)-6-(5-(trifluoromethyl)pyridin-2-yl)pyrido[3,4-d]pyrimidin-4(3H)-one], at AHR, the 50% inhibitory concentration (IC50) was below 100 nM. The solubility at 2 h in series [2] (setting [3]) and in series [2] (setting [4]) was at least 1 µM throughout.
Take `O=c1c2cc(-c3ccc(Cl)cc3)nc(-c3cccnc3)c2ncn1[C@H]1COC[C@H]1O` (stereo in doubt) [Compound 70]: the solubility at 2 h in series [2] (setting [3]) and in series [2] (setting [4]) was at least 1 µM in each case. The CLint scaled at 1 μM in series [1] is below 20 mL/min/kg.
Turning to `Cc1ccc(-c2cc3c(=O)n([C@H](CO)C(C)C)cnc3c(-c3cc(F)cc(F)c3)n2)cc1` [Compound 37], the half-maximal inhibitory concentration (IC50) at AHR was below 100 nM. The values for the solubility at 2 h in series [2] (setting [3]) and in series [2] (setting [4]) were at least 1 µM and below 0.1 µM, respectively.
For `C[C@@H](CO)n1cnc2c(-c3cnn(C)c3)nc(-c3ccc(C(F)(F)F)cn3)cc2c1=O` [Compound 150, (S)-3-(1-hydroxypropan-2-yl)-8-(1-methyl-1H-pyrazol-4-yl)-6-(5-(trifluoromethyl)pyridin-2-yl)pyrido[3,4-d]pyrimidin-4(3H)-one], the concentration for half-maximal inhibition (IC50) at AHR was below 100 nM. The CLint scaled at 1 μM in series [1] is below 20 mL/min/kg.
In the case of `CC(C)(O)Cn1cnc2c(-c3cccc(F)c3)nc(-c3ccc(Cl)cc3)cc2c1=O` [Compound 38], the half-maximal inhibitory concentration (IC50) at AHR is below 100 nM. Also, the solubility at 2 h in series [2] (setting [3]) and in series [2] (setting [4]) was below 0.1 µM throughout.
Take `O=c1c2cc(-c3ccc(C(F)(F)F)nc3)nc(-c3cccnc3)c2ncn1[C@@H]1COC[C@@H]1O` [Compound 129, 3-((3R,4R)-4-hydroxytetrahydrofuran-3-yl)-8-(pyridin-3-yl)-6-(6-(trifluoromethyl)pyridin-3-yl)pyrido[3,4-d]pyrimidin-4(3H)-one]: the IC50 on AHR is below 100 nM. For the same compound, the solubility at 2 h in series [2] (setting [3]) and in series [2] (setting [4]) was at least 1 µM throughout.
Regarding `O=c1c2cc(-c3ccc(OC(F)(F)F)cc3)nc(-c3cccnc3)c2ncn1C[C@@H](O)C(F)(F)F` [Compound 123, (R)-8-(pyridin-3-yl)-3-(3,3,3-trifluoro-2-hydroxypropyl)-6-(4-(trifluoromethoxy)phenyl)pyrido[3,4-d]pyrimidin-4(3H)-one], the solubility at 2 h in series [2] (setting [3]) was at least 1 µM; in series [2] (setting [4]), below 0.1 µM. In addition, the CLint scaled at 1 μM in series [1] was below 20 mL/min/kg.
As for `C[C@@H](CO)n1cnc2c(-c3cccnc3)nc(-c3ccc(Cl)cc3)cc2c1=O` [Compound 24], the 50% inhibitory concentration (IC50) at AHR is below 100 nM. Further, the solubility at 2 h in series [2] (setting [3]) and in series [2] (setting [4]) was at least 1 µM throughout.
Turning to `C[C@@H](CO)n1cnc2c(-c3cn[nH]c3)nc(-c3ccc(C(F)(F)F)cn3)cc2c1=O` [Compound 191, (S)-3-(1-hydroxypropan-2-yl)-8-(1H-pyrazol-4-yl)-6-(5-(trifluoromethyl)pyridin-2-yl)pyrido[3,4-d]pyrimidin-4(3H)-one], the IC50 at AHR is below 100 nM.
The same measure, in the same setting: for `Cn1cnc2c(-c3cccnc3)nc(-c3ccc(OC(F)(F)F)cc3)cc2c1=O` [Compound 28] the value was below 100 nM.
The same measure, in the same setting: the value for `Cc1cc(Cl)ccc1-c1cc2c(=O)n(CC(C)(C)O)cnc2c(-c2cnn(C)c2)n1` [Compound 61] was 100 to 500 nM.
Still for that read-out and setting: for `C[C@@H](CO)n1cnc2c(-c3ccc(C(F)(F)F)nc3)nc(-c3ccc(C(F)(F)F)nc3)cc2c1=O` [Compound 69] the value was 100 to 500 nM.
